# Experimental data reported in patent US8604229B2, “Lipoxin analogs and methods for the treatment of periodontal disease” (University of Southern California, priority 2000, dated 2013).
# Columns and labels:
# [1] = tested on: PGE2 production; assay: PGE2 levels in air pouch exudates (EIA) after P. gingivalis; format: in vivo, BALB/c mice
# Protocol: (§1) Six to eight week old male BALB/c mice were obtained from Taconic Farms (Germantown, N.Y.). Air pouches were raised on the dorsum by s.c. injection of 3 ml of sterile air on day 0 and day 3, and all experiments were carried out on day 6 (Sin, Y. M., et al. (1986) Ann. Rheum. Dis. 45, 873). Individual air pouches (one per mouse) were injected with either vehicle alone (0.1% ethanol), with 10 μg 15-R/S-methyl-LXA4-me or with 10 μg 15-epi-16-phenoxy-LXA4-me, followed by 500 μl of sterile PBS or ˜10^5 cells of P. gingivalis strain A7436 (OD600 0.9-1.0) originally obtained from the CF of a patient diagnosed with periodontitis. Mice were sacrificed 4 hr post-injection and individual air pouches were lavaged three times with sterile PBS (3 ml for each lavage) (Sin, Y. M. et al. (1986) Ann. Rheum. Dis. 45, 873; Hachicha, M., et al. (1999) J. Exp. Med. 189, 1923). […] Air pouch exudates were assessed for PGE2 using an enzyme immunoassay (EIA) kit (Cayman Chemical Co., Ann Arbor, Mich. [cross-reactivities in the PGE2 EIA kit were <0.04% for 6-keto PGF1α and <0.01% for LTB4, thromboxane B2 and arachidonic acid]). […]
# Since PGE2 is associated with loss of attachment and bone loss in periodontal disease (Offenbacher, S., et al. (1992) J. Periodontal Res. 27, 207), we determined PGE2 levels in the air pouch exudates. […] Also, the expression of COX-2 was evaluated in exudate leukocytes. […]
# [2] = tested on: COX-2 mRNA; assay: COX-2 expression in air pouch exudate leukocytes (northern blot); format: in vivo, BALB/c mice; settings: within the air pouch, P. gingivalis-injected mice
# Protocol: as §1
# Since PGE2 is associated with loss of attachment and bone loss in periodontal disease (Offenbacher, S., et al. (1992) J. Periodontal Res. 27, 207), we determined PGE2 levels in the air pouch exudates. […]
smiles,measurement,setting,value
CCCCCC(C)(O)/C=C/C=C\C=C\C=C\[C@@H](O)[C@@H](O)CCCC(=O)O (stereo partly drawn) [15-R/S-methyl LXA4],decrease of PGE2 levels in the exudates,"[1]; 10 μg/pouch, P. gingivalis-injected murine air pouch, 4 hr",≤ 75%
same,P. gingivalis-induced PGE2 production in murine air pouch (in words),[1]; murine air pouch exudates,inhibits
same,overall expression of COX-2 in exudates,[2],decreased
